Patent US6380198B1 (Laboratoire Medidom S.A., priority 1997, dated 2002)
Where “and” joins values, the source holds several entries; their conditions need not be identical. Equal values may be shown once.

Assays:
[1] = target: T1, σ-1 receptors (Oryctolagus cuniculus, UniProt G1SD54); assay: [3H](+)-pentazocine receptor binding and competitive binding on irido-ciliary body membranes; set-up: species or system rabbit (New Zealand albino); details: 300 μg membrane protein, 37° C., 150 minutes
T1 construct: cell membranes obtained from the irido-ciliary body complex; from tissue; host or cells: rabbit irido-ciliary body, P2 membrane fraction
From the text: In order to identify the presence of a receptor sites in the eye the technique of “receptor binding” has been exploited. The latter has been carried out on cell membranes obtained from the irido-ciliary body complex. The irido-ciliary body complex had been explanted, after sacrifice, from male albino rabbits of the New Zealand strain. The tissue was homogenised in buffer and a fraction rich in cell membrane proteins was isolated, obtained by centrifugation. […] Aliquots of the said fraction of the homogenate containing 300 μg of total proteins were incubated with scalar amounts of [^3H](+)-pentazocine (which is used, for experimental purposes only, as a a ligand). The reaction was carried out at 37° C. for 150 minutes and then, after filtering, the radioactivity left on the filters was measured by liquid scintillation.

[2] = target: T1, σ-1 receptors; assay: Inhibition of 3H(+)-N-allyl-nor-methazocine binding to irido-ciliary body membranes; set-up: species or system rabbit (New Zealand albino); details: rabbit irido-ciliary body P2 membranes, 300 μg protein, 37° C., 150 minutes, duplicate
Method: The receptor binding technique was carried out on cell membranes obtained from the irido-ciliary body complex explanted, after sacrifice, from male albino rabbits of the New Zealand strain (Charles River Italiana, of Calco (CO)). The tissue was homogenised in buffer and the P2, fraction, rich in cell membrane proteins, was isolated. […] The La total protein concentration was determined with the Lowry method.
The non specific binding was evaluated in presence of haloperidol.
All tests were carried out in duplicate. The reaction was maintained at 37° C. for 150 minutes, followed by filtration on WhatmannGF/B filters. The radioactivity left on the filters was measured by liquid scintillation spectrometry.

[3] = test system: intraocular pressure of rabbits with ocular hypertension; assay: Intraocular pressure in rabbits with ocular hypertension induced by α-chymotrypsin; assay type: in vivo, rabbit (Vienna Blue, pigmented); details: Table 5, hypertensive rabbits, 50 μl eye-drops: 0.050% flunarizine, 0.5% timolol, or flunarizine/beta-blocker combinations
Method: Rabbits of the same type as those described in the previous section were used for the following tests.
In the rabbit, the injection of this enzyme in the posterior chamber causes, after one month from the administration, an effect of ocular hypertension.
At the end of the quarantine period the rabbits were anaesthetised by intramuscular administration of ketamine hydrochloride and xylazine hydrochloride (RBI). The right eye was gently pushed outwardly after instilling 25 μl of Novesine® eye-drops, containing oxybuprocaine as an anaesthetic; then, a sterile solution of σ-chymotrypsin (SIGMA, Milan; 150 units in 100 μl of physiologic sterile solution) was injected in the posterior chamber of the right eye by means of a 30G sterile needle. After the administration of the enzyme, the eye was thoroughly washed with physiologic sterile solution in order to remove any traces of α-chymotrypsin which could damage the ocular tissues. Then, 2 drops of a commercial ophthalmic antibiotic solution (Colbiocin®, SIFI S.p.A., containing chloramphenicol, rolitetracycline, colistin methanesulphonate) were instilled. The treatment was carried out 3 times a day (at 8.00 a.m., 12.00 a.m. and 6.00 p.m.) for one week after the administration of α-chymotrypsin. The rabbits were employed in the tests after one month from the induction of ocular hypertension by means of the enzyme.
The rabbits, divided also in this case in groups of 4 animals, were treated by instillation of 50 μl of the product under test in the right conjunctival fornix.
The intraocular pressure in the treated eye was measured, according to the same procedure as in the previous tests, 15 minutes before the instillation of the eye-drops and 30, 60, 90, 120, 180 and 240 minutes after. The values obtained were statistically analysed according to the criteria mentioned in the foregoing.
The experimental conditions were exactly the same as before.

[4] = test system: intraocular pressure of rabbits showing normal baseline intraocular pressure; assay: Intraocular pressure in rabbits with normal intraocular pressure after topical instillation; assay type: in vivo, rabbit (Vienna Blue, pigmented); details: Table 2, 50 μl eye-drops: 0.050% flunarizine, 0.5% timolol, or flunarizine/beta-blocker combinations
Method: The effects of the agent of the invention on the intraocular pressure of rabbits showing normal baseline intraocular pressure were evaluated in comparison with the action of a placebo, and with that of various other calcium channel blocking agents. Female pigmented rabbits of the Vienna Blue strain were used (supplied by Charles River Italiana, of Calco (CO)). The age of the animals at the time of starting the experimentation was 9 weeks, and their weight was 2.0-2.5 kg.
The choice of a species with pigmented iris is due to the fact that the latter represents a reliable model for the evaluation of possible modifications of the intraocular pressure caused by the products under test. The strain chosen is genetically defined, so as to limit to a minimum the variability of the biological characteristics between one animal and the other.
The animals were kept in rooms maintained under constant and controlled conditions of temperature and humidity, illuminated for 12 hours a day with artificial light and with continuous renovation of the air. The feed consisted of a standard diet having a constant and known composition, and both feed and water were available ad libitum during the whole period of the test. The rabbits were stabled for 21 days before starting the test, so as to allow a sufficient acclimatation and to suitably evaluate the health conditions of the rabbits. Each experimental group consisted of 4 animals, which were allotted to the treatment groups in a randomised way.
Each different group of animals received, by instillation in the right conjunctival fornix, 50 μl of the following products:
The weight concentrations of the various agents under test are chosen so as to correspond to the same molar concentration.
The pressure in the treated eye was measured by flattening tonometer (TonopenXL®, Mentor), 15 minutes before the instillation of the eyerops (time 0) and then 30, 60, 90, 120, 180 and 240 minutes after. As a local anaesthetic, 5 minutes before carrying out each measurement 25 μl of a commercial ophthalmic solution containing 0.4% oxybuprocaine hydrochloride (Novesine®, Sandoz) was instilled. To carry out the measurement the rabbits were placed in a suitably designed cage, that prevents any sudden movement of the animal under test.
For each animal and at each of the times listed above the average of three subsequent measurements was calculated and recorded, each one said measurements being made after 1 minute from the previous one. The intraocular pressure values at the various times were compared with the values obtained before the treatment, by means of the Student's “t” test. The comparisons between different groups were made by processing the data by the variance analysis (ANOVA) and, where possible, by the Student's “t” test for the comparison of two different experimental groups. Values of p<0.05 were considered to be statistically significant.

[5] = average ± S.D. of 4 rabbits, 30 min after instillation
[6] = average ± S.D. of 4 rabbits, 60 min after instillation
[7] = average ± S.D. of 4 rabbits, 90 min after instillation
[8] = average ± S.D. of 4 rabbits, 120 min after instillation
[9] = average ± S.D. of 4 rabbits, 180 min after instillation
[10] = average ± S.D. of 4 rabbits, 240 min after instillation
[11] = average ± S.D. of 4 rabbits, time 0 = 15 min before instillation (baseline)
[12] = individual rabbit, right eye, 30 min after instillation
[13] = individual rabbit, right eye, 60 min after instillation
[14] = individual rabbit, right eye, 90 min after instillation
[15] = individual rabbit, right eye, 120 min after instillation
[16] = individual rabbit, right eye, 180 min after instillation
[17] = individual rabbit, right eye, 240 min after instillation
[18] = individual rabbit, right eye, time 0 = 15 min before instillation (baseline)

T1 sequence (G1SD54 1-223): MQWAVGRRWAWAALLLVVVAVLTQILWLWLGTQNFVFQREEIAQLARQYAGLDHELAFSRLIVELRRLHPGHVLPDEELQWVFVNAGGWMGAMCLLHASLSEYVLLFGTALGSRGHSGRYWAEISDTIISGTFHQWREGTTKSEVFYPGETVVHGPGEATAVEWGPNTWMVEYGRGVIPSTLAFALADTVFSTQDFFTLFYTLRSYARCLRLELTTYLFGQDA

CC(C)=CCN1CC[C@]2(C)c3cc(O)ccc3C[C@H]1[C@H]2C [[^3H])(+)-pentazocine, [^3H](+)-pentazocine]
Binding to receptor sites of the iridociliary body region [1]: selectively binds to receptor sites

COCCOC(=O)C1=C(C)NC(C)=C(C(=O)OC(C)C)C1c1cccc([N+](=O)[O-])c1 (stereo not drawn) [nimodipine]
IC50 [2]: > 10 µM

CC(C)(C)NC[C@H](O)COc1nsnc1N1CCOCC1 [timolol]
Intraocular pressure (mmHg) at the time (min): 30, average ± S.D. [3, 5]: 41.7 ± 4.7 mmHg | Intraocular pressure (mmHg) at the time (min): 60, average ± S.D. [3, 6]: 39.7 ± 2.9 mmHg | Intraocular pressure (mmHg) at the time (min): 90, average ± S.D. [3, 7]: 39.7 ± 2.6 mmHg | Intraocular pressure (mmHg) at the time (min): 120, average ± S.D. [3, 8]: 42.5 ± 3.5 mmHg | Intraocular pressure (mmHg) at the time (min): 180, average ± S.D. [3, 9]: 46.0 ± 4.9 mmHg | Intraocular pressure (mmHg) at the time (min): 240, average ± S.D. [3, 10]: 48.2 ± 4.4 mmHg | Intraocular pressure (mmHg) at the time (min): 0, average ± S.D. [3, 11]: 49.0 ± 5.3 mmHg | Intraocular pressure (mmHg) at the time (min): 30 [3, 12]: 43 mmHg and 45 mmHg and 39 mmHg and 40 mmHg | Intraocular pressure (mmHg) at the time (min): 60 [3, 13]: 42 mmHg (2×) and 39 mmHg and 36 mmHg | Intraocular pressure (mmHg) at the time (min): 90 [3, 14]: 42 mmHg (2×) and 38 mmHg and 37 mmHg | Intraocular pressure (mmHg) at the time (min): 120 [3, 15]: 46 mmHg and 45 mmHg and 39 mmHg and 40 mmHg | Intraocular pressure (mmHg) at the time (min): 180 [3, 16]: 52 mmHg and 48 mmHg and 42 mmHg (2×) | Intraocular pressure (mmHg) at the time (min): 240 [3, 17]: 53 mmHg and 51 mmHg and 45 mmHg and 44 mmHg | Intraocular pressure (mmHg) at the time (min): 0 [3, 18]: 53 mmHg and 54 mmHg and 46 mmHg and 43 mmHg | Intraocular pressure (mmHg) at the time (min): 30, average ± S.D. [4, 5]: 14.7 ± 0.5 mmHg | Intraocular pressure (mmHg) at the time (min): 60, average ± S.D. [4, 6]: 13.5 ± 0.6 mmHg | Intraocular pressure (mmHg) at the time (min): 90, average ± S.D. [4, 7]: 14.5 ± 0.6 mmHg | Intraocular pressure (mmHg) at the time (min): 120, average ± S.D. [4, 8]: 15.5 ± 0.6 mmHg | Intraocular pressure (mmHg) at the time (min): 180, average ± S.D. [4, 9]: 16.0 ± 0.6 mmHg | Intraocular pressure (mmHg) at the time (min): 240, average ± S.D. [4, 10]: 16.0 ± 0.8 mmHg | Intraocular pressure (mmHg) at the time (min): 0, average ± S.D. [4, 11]: 15.7 ± 0.5 mmHg | Intraocular pressure (mmHg) at the time (min): 30 [4, 12]: 15 mmHg (3×) and 14 mmHg | Intraocular pressure (mmHg) at the time (min): 60 [4, 13]: 14 mmHg (2×) and 13 mmHg (2×) | Intraocular pressure (mmHg) at the time (min): 90 [4, 14]: 14 mmHg (2×) and 15 mmHg (2×) | Intraocular pressure (mmHg) at the time (min): 120 [4, 15]: 15 mmHg (2×) and 16 mmHg (2×) | Intraocular pressure (mmHg) at the time (min): 180 [4, 16]: 16 mmHg (2×) and 17 mmHg and 15 mmHg | Intraocular pressure (mmHg) at the time (min): 240 [4, 17]: 16 mmHg (2×) and 17 mmHg and 15 mmHg | Intraocular pressure (mmHg) at the time (min): 0 [4, 18]: 16 mmHg (3×) and 15 mmHg
